From patent US12077503B2, “Substituted cyclic amides and their use as herbicides” (FMC CORPORATION, priority 2015, dated 2024)

Assays:
Assay type in all cases: in vivo
[1] = test system: barnyardgrass (Echinochloa crus-galli); experiment: Test G Pre-Emergence Protocol; settings: Echinochloa crus-galli, pre-emergence, 312 h, evaluated after 13 days; for pest or weed control at 15.625 g/ha: 15.625 g ai/ha, read-out: Barnyard grass damage rating (100=total damage to plant; 0=no damage to plant); for pest or weed control at 62.5 g/ha: 62.5 g ai/ha, 100=total damage to plant, 0=no damage to plant, read-out: plant damage rating, Barnyardgrass; for pest or weed control at 250 g/ha: 250 g ai/ha, read-out: Barnyardgrass damage rating (100=total damage to plant; 0=no damage to plant)
Summary of the method: (§1)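 Pre-emergence spray, 15.625/62.5/250 g/ha, vehicle acetone:water 50:50 + 0.5% Tween 20, applied 1 d after sowing. Glasshouse 24/16° C, 14 h light, 65% RH, watered twice daily. Visual damage rating at 13 d, 0–100 scale.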

corn (Zea mays) [2] = experiment: Test G Pre-Emergence Protocol; settings: Zea mays, pre-emergence, 312 h, evaluated after 13 days; for plant injury at 15.625 g/ha: 15.625 g ai/ha; for plant injury at 15.625 g/ha / plant injury at 250 g/ha: read-out: Corn damage rating (100=total damage to plant; 0=no damage to plant); for plant injury at 62.5 g/ha: 62.5 g ai/ha, 100=total damage to plant, 0=no damage to plant, read-out: plant damage rating, Corn; for plant injury at 250 g/ha: 250 g ai/ha
Summary of the method: as §1

[3] = test system: giant foxtail (Setaria faberi); experiment: Test G Pre-Emergence Protocol; settings: Setaria faberi, pre-emergence, 312 h, evaluated after 13 days; for pest or weed control at 15.625 g/ha: 15.625 g ai/ha; for pest or weed control at 15.625 g/ha / pest or weed control at 250 g/ha: read-out: Foxtail, Giant damage rating (100=total damage to plant; 0=no damage to plant); for pest or weed control at 62.5 g/ha: 62.5 g ai/ha, 100=total damage to plant, 0=no damage to plant, read-out: plant damage rating, Foxtail, Giant; for pest or weed control at 250 g/ha: 250 g ai/ha
Summary of the method: as §1

[4] = test system: ivy-leaved morning glory (Ipomoea hederacea); experiment: Test G Pre-Emergence Protocol; settings: Ipomoea, pre-emergence, 312 h, evaluated after 13 days; for pest or weed control at 15.625 g/ha: 15.625 g ai/ha, read-out: Morning-glory, Ivy-leaved damage rating (100=total damage to plant; 0=no damage to plant); for pest or weed control at 62.5 g/ha: 62.5 g ai/ha, 100=total damage to plant, 0=no damage to plant, read-out: plant damage rating, Morningglory, Ivy-leaved; for pest or weed control at 250 g/ha: 250 g ai/ha, read-out: Morningglory, Ivy-leaved damage rating (100=total damage to plant; 0=no damage to plant)
Summary of the method: as §1

[5] = test system: redroot pigweed (Amaranthus retroflexus); experiment: Test G Pre-Emergence Protocol; settings: Amaranthus retroflexus, pre-emergence, 312 h, evaluated after 13 days; for pest or weed control at 15.625 g/ha: 15.625 g ai/ha; for pest or weed control at 15.625 g/ha / pest or weed control at 250 g/ha: read-out: Pigweed, Redroot damage rating (100=total damage to plant; 0=no damage to plant); for pest or weed control at 62.5 g/ha: 62.5 g ai/ha, 100=total damage to plant, 0=no damage to plant, read-out: plant damage rating, Pigweed, Redroot; for pest or weed control at 250 g/ha: 250 g ai/ha
Summary of the method: as §1

[6] = test system: velvetleaf (Abutilon theophrasti); experiment: Test G Pre-Emergence Protocol; settings: Abutilon theophrasti, pre-emergence, 312 h, evaluated after 13 days; for pest or weed control at 15.625 g/ha: 15.625 g ai/ha; for pest or weed control at 15.625 g/ha / pest or weed control at 250 g/ha: read-out: Velvetleaf damage rating (100=total damage to plant; 0=no damage to plant); for pest or weed control at 62.5 g/ha: 62.5 g ai/ha, 100=total damage to plant, 0=no damage to plant, read-out: plant damage rating, Velvetleaf; for pest or weed control at 250 g/ha: 250 g ai/ha
Summary of the method: as §1

[7] = test system: barnyardgrass (Echinochloa crus-galli); experiment: Test G Post-Emergence Protocol; settings: Echinochloa crus-galli, post-emergence, 312 h; for pest or weed control at 15.625 g/ha: 15.625 g ai/ha, evaluated after 13 days (100=total damage to plant; 0=no damage to plant), read-out: Barnyardgrass damage rating; for pest or weed control at 62.5 g/ha: 62.5 g ai/ha, read-out: Barnyardgrass damage rating (100=total damage to plant; 0=no damage to plant); for pest or weed control at 62.5 g/ha / pest or weed control at 250 g/ha: evaluated after 13 days; for pest or weed control at 250 g/ha: 250 g ai/ha, read-out: damage to plant, Barnyardgrass (100=total damage to plant; 0=no damage to plant)
Summary of the method: (§2)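 Scores run 0 (no damage) to 100 (total damage) and were taken 13 days after spraying. Plants had been raised in pots for 8 days under glasshouse control (24/16 °C, 14 h photoperiod, 65% humidity) and then treated at 15.625, 62.5 or 250 g/ha.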

corn (Zea mays) [8] = experiment: Test G Post-Emergence Protocol; settings: Zea mays, post-emergence, 312 h; for plant injury at 15.625 g/ha: 15.625 g ai/ha, evaluated after 13 days (100=total damage to plant; 0=no damage to plant), read-out: Corn damage rating; for plant injury at 62.5 g/ha: 62.5 g ai/ha, read-out: Corn damage rating (100=total damage to plant; 0=no damage to plant); for plant injury at 62.5 g/ha / plant injury at 250 g/ha: evaluated after 13 days; for plant injury at 250 g/ha: 250 g ai/ha, read-out: damage to plant, Corn (100=total damage to plant; 0=no damage to plant)
Summary of the method: as §2

[9] = test system: giant foxtail (Setaria faberi); experiment: Test G Post-Emergence Protocol; settings: Setaria faberi, post-emergence, 312 h; for pest or weed control at 15.625 g/ha: 15.625 g ai/ha, evaluated after 13 days (100=total damage to plant; 0=no damage to plant), read-out: Foxtail, Giant damage rating; for pest or weed control at 62.5 g/ha: 62.5 g ai/ha, read-out: Foxtail, Giant damage rating (100=total damage to plant; 0=no damage to plant); for pest or weed control at 62.5 g/ha / pest or weed control at 250 g/ha: evaluated after 13 days; for pest or weed control at 250 g/ha: 250 g ai/ha, read-out: damage to plant, Foxtail, Giant (100=total damage to plant; 0=no damage to plant)
Summary of the method: as §2

[10] = test system: ivy-leaved morning glory (Ipomoea hederacea); experiment: Test G Post-Emergence Protocol; settings: Ipomoea, post-emergence, 312 h; for pest or weed control at 15.625 g/ha: 15.625 g ai/ha, evaluated after 13 days (100=total damage to plant; 0=no damage to plant), read-out: Morningglory, Ivy-leaved damage rating; for pest or weed control at 62.5 g/ha: 62.5 g ai/ha, read-out: Morningglory, Ivy-leaved damage rating (100=total damage to plant; 0=no damage to plant); for pest or weed control at 62.5 g/ha / pest or weed control at 250 g/ha: evaluated after 13 days; for pest or weed control at 250 g/ha: 250 g ai/ha, read-out: damage to plant, Morningglory, Ivy-leaved (100=total damage to plant; 0=no damage to plant)
Summary of the method: as §2

[11] = test system: redroot pigweed (Amaranthus retroflexus); experiment: Test G Post-Emergence Protocol; settings: Amaranthus retroflexus, post-emergence, 312 h; for pest or weed control at 15.625 g/ha: 15.625 g ai/ha, evaluated after 13 days (100=total damage to plant; 0=no damage to plant), read-out: Pigweed, Redroot damage rating; for pest or weed control at 62.5 g/ha: 62.5 g ai/ha, read-out: Pigweed, Redroot damage rating (100=total damage to plant; 0=no damage to plant); for pest or weed control at 62.5 g/ha / pest or weed control at 250 g/ha: evaluated after 13 days; for pest or weed control at 250 g/ha: 250 g ai/ha, read-out: damage to plant, Pigweed, Redroot (100=total damage to plant; 0=no damage to plant)
Summary of the method: as §2

[12] = test system: velvetleaf (Abutilon theophrasti); experiment: Test G Post-Emergence Protocol; settings: Abutilon theophrasti, post-emergence, 312 h; for pest or weed control at 15.625 g/ha: 15.625 g ai/ha, evaluated after 13 days (100=total damage to plant; 0=no damage to plant), read-out: Velvetleaf damage rating; for pest or weed control at 62.5 g/ha: 62.5 g ai/ha, read-out: Velvetleaf damage rating (100=total damage to plant; 0=no damage to plant); for pest or weed control at 62.5 g/ha / pest or weed control at 250 g/ha: evaluated after 13 days; for pest or weed control at 250 g/ha: 250 g ai/ha, read-out: damage to plant, Velvetleaf (100=total damage to plant; 0=no damage to plant)
Summary of the method: as §2

Row | Compound | pest or weed control at 15.625 g/ha [1] | pest or weed control at 62.5 g/ha [1] | pest or weed control at 250 g/ha [1] | plant injury at 15.625 g/ha (corn (Zea mays) [2]) | plant injury at 62.5 g/ha (corn (Zea mays) [2]) | plant injury at 250 g/ha (corn (Zea mays) [2]) | pest or weed control at 15.625 g/ha [3] | pest or weed control at 62.5 g/ha [3] | pest or weed control at 250 g/ha [3] | pest or weed control at 15.625 g/ha [4] | pest or weed control at 62.5 g/ha [4] | pest or weed control at 250 g/ha [4] | pest or weed control at 15.625 g/ha [5] | pest or weed control at 62.5 g/ha [5] | pest or weed control at 250 g/ha [5] | pest or weed control at 15.625 g/ha [6] | pest or weed control at 62.5 g/ha [6] | pest or weed control at 250 g/ha [6] | pest or weed control at 15.625 g/ha [7] | pest or weed control at 62.5 g/ha [7] | also measured
1 | COc1cncc(NC(=O)[C@@H]2C(=O)N(C)C[C@H]2c2ccc(C(F)(F)F)cc2)n1 (racemic) [Compound 1565] | 0% | 0% | 10% | 0% | 0% | 0% | 0% | 0% | 60% | 0% | 0% | 0% | 0% | 0% | 10% | 0% | 0% | 0% | 0% | 0% | pest or weed control at 250 g/ha [7]: 10%; plant injury at 15.625 g/ha (corn (Zea mays) [8]): 0%; plant injury at 62.5 g/ha (corn (Zea mays) [8]): 0%; plant injury at 250 g/ha (corn (Zea mays) [8]): 10%; pest or weed control at 15.625 g/ha [9]: 0%; pest or weed control at 62.5 g/ha [9]: 0%; pest or weed control at 250 g/ha [9]: 50%; pest or weed control at 15.625 g/ha [10]: 0%; pest or weed control at 62.5 g/ha [10]: 0%; pest or weed control at 250 g/ha [10]: 0%; pest or weed control at 15.625 g/ha [11]: 0%; pest or weed control at 62.5 g/ha [11]: 0%; pest or weed control at 250 g/ha [11]: 0%; pest or weed control at 15.625 g/ha [12]: 0%; pest or weed control at 62.5 g/ha [12]: 0%; pest or weed control at 250 g/ha [12]: 30%
2 | Cc1csc(NC(=O)[C@@H]2C(=O)N(C)C[C@H]2c2ccc(C(F)(F)F)cc2)c1C#N (racemic) [Compound 1576] | 30% | 70% | 90% | 0% | 0% | 20% | 30% | 70% | 70% | 0% | 0% | 0% | 0% | 0% | 20% | 0% | 0% | 0% | 10% | 60% | pest or weed control at 250 g/ha [7]: 70%; plant injury at 15.625 g/ha (corn (Zea mays) [8]): 0%; plant injury at 62.5 g/ha (corn (Zea mays) [8]): 20%; plant injury at 250 g/ha (corn (Zea mays) [8]): 10%; pest or weed control at 15.625 g/ha [9]: 30%; pest or weed control at 62.5 g/ha [9]: 40%; pest or weed control at 250 g/ha [9]: 70%; pest or weed control at 15.625 g/ha [10]: 0%; pest or weed control at 62.5 g/ha [10]: 20%; pest or weed control at 250 g/ha [10]: 20%; pest or weed control at 15.625 g/ha [11]: 0%; pest or weed control at 62.5 g/ha [11]: 0%; pest or weed control at 250 g/ha [11]: 0%; pest or weed control at 15.625 g/ha [12]: 0%; pest or weed control at 62.5 g/ha [12]: 0%; pest or weed control at 250 g/ha [12]: 10%
